Results reported in US11400054B2, “Method for treating an autoimmune neurological disease and/or neurodegenerative disease and pharmaceutical formulations for a liquid dosage form and a controlled release dosage form” (INDUSTRIAL TECHNOLOGY RESEARCH INSTITUTE, priority 2017, dated 2022).

How the values were obtained:
[1] = test system: MOG induced IFN-γ secretion in splenocyte; assay: MOG induced IFN-γ secretion in splenocyte isolated from mice of EAE model (ELISA); assay type: cell-based, C57BL/6 mice; details: Mus musculus, 20 μg/ml MOG peptide, 48 hours; for inhibition at 300 µM: concentration 300 μM; for inhibition at 200 µM: concentration 200 μM; for inhibition at 100 µM: concentration 100 μM
Description: (§1) EAE was induced in C57BL/6 mice. The mice were immunized on Day 0 by subcutaneous injection with 200 μg of myelin oligodendrocyte glycoprotein (MOG) in […] containing 400 μg of heat-killed Mycobaterium tuberculosis H37Ra. Pertussis toxin (500 ng) was intraperitoneally injected on Day 0 and Day 2 after the mice were immunized with the emulsion. The mice were sacrifice on Day 30 post-immunization. Spleens of the mice were harvest and then splenocytes were isolated and cultured in presence or absence of the 20 μg/ml MOG peptide in 10% FBS RPMI1640 medium. Testing compound was added to the culture and maintained at 37° C. 5% CO2 for 48 hours. The concentrations of IFN-γ and IL-2 in the supernatant of the culture were determined by ELISA according to the manufacturer's instructions.

[2] = test system: EAE induced mice; assay: Therapeutic administration experiment in EAE induced mice, EAE score; assay type: in vivo, C57BL/6 mice; details: 14 days after onset
[3] = test system: MOG induced IL-2 secretion in splenocyte; assay: MOG induced IL-2 secretion in splenocyte isolated from mice of EAE model (ELISA); assay type: cell-based, C57BL/6 mice; details: Mus musculus, 20 μg/ml MOG peptide, 48 hours; for inhibition at 300 µM: concentration 300 μM; for inhibition at 200 µM: concentration 200 μM; for inhibition at 100 µM: concentration 100 μM
Description: as §1

[4] = test system: LPS-induced IL-6 expression in BV-2 cells; assay: LPS-induced IL-6 expression in BV-2 cells (IL-6 ELISA); assay type: cell-based; details: Mus musculus, compound 1 hour then LPS 100 ng/mL, 24 hours
Description: (§2) BV-2 cells (8×10^3 cells/mL) were seeded in a 96-well plate cultured under 37° C., 5% CO2 overnight. The cells were divided into a naïve group (without any treatment), a control group (only treated with LPS) and experimental groups (treated with LPS and a testing compound).
(§3) The supernatant in the well was removed. After that, different concentrations of a testing compound was added to the cells to react with the cells for 1 hour (culture medium was added to the cells for a control group), and then LPS (100 ng/mL) was added to the cell.
After reacting for 24 hours, the supernatant in the plate was taken and IL-6 expressing amount was detected by Mouse IL-6 ELISA Ready-SET-Go (Invitrogen; Cat. No. 88-7064-88) according to the manufacturer's recommended procedure.
(§4) CC50 value for cell viability of a testing compound and IC50 value for IL-6 expression of a testing compound were calculated based on cell viabilities at different concentrations of the testing compound and IL-6 expression amounts of the cells at different concentrations of the testing compound, respectively.

[5] = test system: spinal cords of the EAE induced mice; assay: Histology of spinal cord lesions in EAE induced mice (H&E, Luxol fast blue); assay type: in vivo, C57BL/6 mice; details: 100 mg/kg three times a day, day 15 after onset
Description: The mice were euthanized at day 15 post to onset of EAE. Spinal cord was removed and fixed in 10% phosphate-buffered formaldehyde. Paraffin-embedded 3 μm-thick cross sections of spinal cord were stained with hematoxylin and eosin in order to confirm tissue lesion. Another slides were stained with Luxol fast blue for examination of demyelination. Lesions were evaluated based on demyelination, inflammation, axonal swelling and gliosis which are scored based on the criteria shown in Table 2: […]

[6] = test system: EAE induced mice; assay: Prophylaxis administration experiment in EAE induced mice, EAE score; assay type: in vivo, C57BL/6 mice; details: 100 mg/kg one time a day from Day 7 after induction, 14 days; vs vehicle (FIG. 10)
[7] = Cell viability of BV-2 cells (MTT); assay type: cell-based; details: mouse, LPS 100 ng/mL
Description: as §2, §3
Moreover, 50 μl of culturing medium containing MTT (0.5 mg/mL) was added to the cell part in the plate and cultured under 37° C. and 5% CO2 for 90 minutes, and then 150 μL DMSO was added to the plate and the plate was shaken for 5-10 minutes. Finally, OD570 was read by a continuous wavelength microplate analyzer, and cell viability was calculated using the following formula: Cell viability (%)=(OD value of the experimental group/OD value of the control group)×100.
as §4

| Structure (SMILES) | inhibition at 200 µM [1] | inhibition at 200 µM [3] | IC50 [4] | CC50 at 24 h [7] | other results |
| --- | --- | --- | --- | --- | --- |
| CC1=CCC(C(C)(C)O)CC1O (stereo not drawn) [SK0, (+)(−) trans-Sobrerol, reference compound] |  |  |  |  | inhibition at 300 µM [1]: 10%; EAE score (symptoms of EAE) ([2]; 100 mg/kg one time a day, 15, 50, 100 mg/kg BID, vs vehicle (FIGS. 8A, 8B)): significantly alleviating symptoms of EAE; inhibition at 300 µM [3]: 16% |
| CC1=CC[C@H](C(C)(C)O)C[C@H]1O [SK1, (+) trans-Sobrerol] | 24% | 0% |  |  |  |
| CC1=CC[C@@H](C(C)(C)O)C[C@@H]1O [SK2, (−) trans-sobrerol] | 34% | 0% | 183 ± 21.8 µM | > 200 µM | EAE score (symptoms of EAE) ([2]; 30, 100 mg/kg one time a day, 50, 100 mg/kg BID, 10-100 mg/kg TID, vs vehicle (FIGS. 5A-5C)): significantly alleviating symptoms of EAE; axonal swelling in spinal cords ([5]; vs vehicle (FIG. 7B)): effectively alleviating; inflammation in spinal cords ([5]; vs vehicle (FIG. 7C)): effectively alleviating; gliosis in spinal cords ([5]; vs vehicle (FIG. 7D)): effectively alleviating; demyelination in spinal cords ([5]; vs vehicle (FIGS. 6, 7A)): effectively alleviating; EAE score (symptoms of EAE) [6]: significantly alleviating symptoms of EAE |
| CC1=CC[C@@H](C(C)(C)O)C[C@@H]1OC(=O)CCc1ccccc1 [TMUS-0124-4c] | 78% | 23% | 38.2 µM | > 100 µM |  |
| CC1=CC[C@@H](C(C)(C)O)C[C@@H]1OC(=O)c1ccc([N+](=O)[O-])cc1 [TMUS-0124-4d] | 79% | 22% | 48.1 µM | > 100 µM |  |
| COc1ccc(C(=O)O[C@H]2C[C@H](C(C)(C)O)CC=C2C)cc1 [TMUS-0124-4e] |  |  | 50.8 µM | > 100 µM | inhibition at 100 µM [1]: 86%; inhibition at 100 µM [3]: 59% |
| CCCCCC(=O)O[C@H]1C[C@H](C(C)(C)O)CC=C1C [TMUS-0124-4f] | 59% | 8% | 38 µM | > 100 µM |  |
| CC1CCC(C(C)(C)O)CC1=O (stereo not shown) [TMUS-0503-H2] |  |  | < 10 µM | > 100 µM | inhibition at 100 µM [1]: 33%; inhibition at 100 µM [3]: 16% |
| C[C@H]1CC[C@H](C(C)(C)O)C[C@H]1O [TMUS-0503-H3] |  |  | 30 to 100 µM | > 100 µM |  |
| C[C@@H]1CC[C@H](C(C)(C)O)C[C@H]1O [TMUS-0503-H4] |  |  | 30 to 100 µM | > 100 µM | inhibition at 300 µM [1]: 42%; inhibition at 300 µM [3]: 19% |
| CC1=CC[C@@H](C(C)(C)O)C[C@@H]1OCc1ccccc1 [TMUS-0503-b1] |  |  | < 10 µM | > 100 µM | inhibition at 300 µM [1]: 20%; inhibition at 300 µM [3]: 15% |
| CC1=CCC2CC1OC2(C)C (stereo not shown) [TMUS-0503-c1] |  |  | 30 to 100 µM | > 100 µM | inhibition at 300 µM [1]: 23%; inhibition at 300 µM [3]: 22% |
| CC1(C)OC2CC1CC1OC21C (stereo not shown) [TMUS-0503-c2] |  |  | 30 to 100 µM | > 100 µM | inhibition at 100 µM [1]: 31%; inhibition at 100 µM [3]: 13% |
| CO[C@H]1C[C@H](C(C)(C)O)CC=C1C [TMUS-0503-m1] |  |  | < 10 µM | > 100 µM | inhibition at 100 µM [1]: 17%; inhibition at 100 µM [3]: 21% |
| CC1=CCC(C(C)(C)O)CC1=O (stereo not shown) [TMUS-0503-o1] | 56% | 40% | < 10 µM | > 100 µM |  |
